{"source": "patent US20220387410A1", "about": "“4-[5-[(rac)-1-[5-(3-Chlorophenyl)-3-isoxazolyl]ethoxy]-4-methyl-4H-1,2,4-triazol-3-yl]pyridine for use in prevention and/or treatment of surmenage in a mammal” (priority 2019, published 2022)", "key": {"Mice": {"system": "Mice", "details": "p<0.001, cited from earlier work"}, "[1]": {"system": "cat or dog undergoing elective castration or ovariohysterectomy", "test": "Recovery after neutering, TT001 added as pre-medication (Example 1)", "format": "in vivo", "experimental": "To study recovery after neutering, cage demeanour scoring using a simple descriptive scale was used. The dogs were premedicated with acepromazine and pethidine, intermuscular (i.m.) in a first group, or in a second group TT001 was also added as pre-medication.\n(§1) Twenty to forty minutes after pre-medication, the sedation was scored with the SDS (simple descriptive scale). The dogs were induced with propofol. Anesthesia was maintained with isoflurane in oxygen. Intraoperative analgesia was provided with morphine, prior to surgery. At the end of the surgery, group 1 received meloxicam, while group 2 received no additional treatment.\n(§2) At the end of the procedure and recovery SDS was scored."}, "[2]": {"system": "cat or dog undergoing elective castration or ovariohysterectomy", "test": "Recovery after neutering, TT001 plus meloxicam vs meloxicam (Example 2)", "format": "in vivo", "experimental": "To study recovery after neutering, cage demeanour scoring using a simple descriptive scale was used. The dogs were premedicated with acepromazine and pethidine, i.m. in a first group, and meloxicam orally or in a second group TT001 was also added as pre-medication.\nas §1, with “pre-medication” for “pre-medication,”, “continued to receive” for “received”, “continued to receive TT001 as well as meloxicam. No” for “received no”, “treatment was administered.” for “treatment.”\nas §2"}, "[3]": {"test": "Dissolution of TT001 in I.V. formulation vehicle", "format": "physicochemical", "details": "0.1-10 mg/mL in 40% w/v HPβCD in water for injection; a couple of hours for complete dissolution", "experimental": "Formulation Method for the Preparation of TT001 for I.V. Dosing, 0.1 to 10 mg/ml\nThe formulation method is applicable at concentrations in formulation between 0.1 and 10 mg/mL corresponding to 0.262 and 26.2 μmol/mL\nPreparation of 40% w/v HPβCD solution in water for injection\nPreparation of TT001 I.V. formulations between 0.1 and 10 mg/ml"}, "humans": {"system": "humans", "details": "cited from earlier work"}, "mouse FST behavior": {"system": "mouse FST behavior", "test": "Forced Swim Test", "format": "in vivo", "details": "for Immobility duration: mouse FST, vehicle 112.5 ± 14.10", "text": "TT001 has been used in the Forced Swim Test. _For protocol see Can A., et al., The Mouse Forced Swim Test, J Vis Exp. 2012; (59): 3638."}, "rats": {"system": "rats", "test": "Learned helplessness studies", "format": "in vivo, rat", "text": "Nomura S. et al., Studies on animal model of depression: review and perspective, Review, Yakubutsu Seishin Kodo, 1989 December; 9(4):349-58.\nTT001 was used in learned helplessness studies in rats."}, "TLESR": {"system": "TLESR", "details": "healthy volunteers, cited from earlier work"}, "dogs [4]": {"system": "dogs", "test": "Toxicological studies in dogs, maximum 52 weeks, gavage", "format": "in vivo, dog", "details": "dogs, 2, 6, 7 or 31 mg/kg by gavage, after 52 weeks", "experimental": "Toxicological studies for TT001 in dogs, were performed on dogs using 2, 6, 7 or 31 mg/kg, for a maximum of 52 weeks. The dogs were fed with gavage throughout this period and blood samples were taken throughout the period.\nBalcome at al Contemporary Topics 2004 by the American Association for Laboratory Animal Science. Vol 43. […] In addition, the animals are separated and live in small areas which further increase the stress."}, "dogs [5]": {"system": "dogs", "details": "cited from earlier work"}, "[6]": {"details": "cat or dog undergoing elective castration or ovariohysterectomy"}, "[7]": {"details": "group 2 (TT001 pre-medication) vs group 1"}, "[8]": {"details": "group 2 (TT001 + meloxicam) vs group 1 (meloxicam)"}}, "note": "Read-outs that look alike come from different tables or passages of the source. Marks after values point to notes of the source that are not given here."}
{"molecule": "CN1CC(=O)NC1=NC(=O)Nc1cccc(Cl)c1", "note": "[Fenobam]", "values": [{"measurement": "stress-induced hyperthermia (SIH)", "setting": "Mice; 10 mg/kg", "result": "significantly reversed"}, {"measurement": "stress-induced hyperthermia (SIH)", "setting": "Mice; 30 mg/kg", "result": "significantly reversed"}]}
{"molecule": "C[C@@H](Oc1nnc(-c2ccncc2)n1C)c1cc(-c2cccc(Cl)c2)on1", "note": "[TT001, 4-[5-[(1R)-1-[5-(3-Chlorophenyl)-3-isoxazolyl]ethoxy]-4-methyl-4H-1,2,4-triazol-3-yl]pyridine]", "values": [{"measurement": "effect on duration of the recovery period", "setting": "[1]; [6]", "result": "positive effect"}, {"measurement": "cortisol values", "setting": "[1]; group 2 (TT001) vs commonly used anesthesia protocol", "result": "Lower"}, {"measurement": "Time to extubation", "setting": "[1]; group 2 (TT001 added as pre-medication) vs group 1 (acepromazine, pethidine; meloxicam after surgery)", "result": "shorter"}, {"measurement": "Time to lifting the head after surgery", "setting": "[1]; [7]", "result": "shorter"}, {"measurement": "Time to raising from the bed after surgery", "setting": "[1]; [7]", "result": "shorter"}, {"measurement": "Time to start of spontaneous/voluntary urination after surgery", "setting": "[1]; [7]", "result": "shorter"}, {"measurement": "Time to starting to eat after surgery", "setting": "[1]; [7]", "result": "shorter"}, {"measurement": "nausea", "setting": "[1]; [7]", "result": "Less"}, {"measurement": "effect on duration for the recovery period", "setting": "[2]; [6]", "result": "positive effect"}, {"measurement": "Time to extubation", "setting": "[2]; [8]", "result": "shorter"}, {"measurement": "Time to lifting the head after surgery", "setting": "[2]; [8]", "result": "shorter"}, {"measurement": "Time to raising from the bedding after surgery", "setting": "[2]; [8]", "result": "shorter"}, {"measurement": "Time to start of spontaneous/voluntary urination after surgery", "setting": "[2]; [8]", "result": "shorter"}, {"measurement": "Time to starting to eat after surgery", "setting": "[2]; [8]", "result": "shorter"}, {"measurement": "cortisol values", "setting": "[2]; [8]", "result": "Lower"}, {"measurement": "nausea", "setting": "[2]; [8]", "result": "Less"}, {"measurement": "time in intensive care/PACU unit", "setting": "[2]; [8]", "result": "Less"}, {"measurement": "dissolution", "setting": "[3]", "result": "moderate"}, {"measurement": "effect on anxiety", "setting": "humans; humans", "result": "no effect"}, {"measurement": "clinical effect in all indications (chronic pain, anxiety, GERD)", "setting": "humans; man, oral, clinical development discontinued", "result": "lack of effect"}, {"measurement": "Immobility duration", "setting": "mouse FST behavior; TT001 3 μmol/kg", "result": "51.15 ± 7.788 ^a sec"}, {"measurement": "Immobility duration", "setting": "mouse FST behavior; TT001 10 μmol/kg", "result": "47.45 ± 11.45 ^a sec"}, {"measurement": "Immobility duration", "setting": "mouse FST behavior; TT001 30 μmol/kg", "result": "44.83 ± 4.693 ^a sec"}, {"measurement": "signs of gastric ulcer or changes in mucosa", "setting": "mouse FST behavior; test animals of the mouse Forced Swim Test", "result": "none of the test animals had signs of gastric ulcer"}, {"measurement": "Escape Failures, Day 4 Mean", "setting": "rats; 1.8 μmol/kg, vehicle 11.1", "result": 2.2}, {"measurement": "Escape Failures, Day 3 Mean", "setting": "rats; 1.8 μmol/kg, vehicle 23.2", "result": 6.9}, {"measurement": "Escape Failures, Total Day 3 + Day 4", "setting": "rats; 1.8 μmol/kg, vehicle 34.25, p < 0.05 vs vehicle", "result": "9.1 ^a"}, {"measurement": "stomach ulcers", "setting": "rats; learned helplessness studies", "result": "did not appear"}, {"measurement": "effect on TLESR", "setting": "TLESR; 13 mg (about 0.19 mg/kg), 2 to 3 hours after food-intake", "result": "some effect"}, {"measurement": "side effects", "setting": "TLESR; high doses of 13 mg", "result": "Some serious side effects"}, {"measurement": "effect on reflux", "setting": "TLESR; prior to food intake and 1-2 hours after food intake", "result": "no significant effect"}, {"measurement": "signs of gastric ulcer", "setting": "dogs [4]", "result": "none of the animals showed signs of gastric ulcer"}]}
{"molecule": "COc1cccc(C2(O)CCCCC2CN(C)C)c1", "note": "(centres unmarked) [Tramadol]", "values": [{"measurement": "pain killer effect", "setting": "dogs [5]", "result": "not present"}]}
